Test [1] has as its system PSA promoter (androgen-responsive promoter) in 22RvPSA36-103 cells. The test can be described thus: PSA-luciferase reporter assay, induction by steroid hormones. To be noted: 20 hours; for PSA-luciferase activity stimulation: 10 nM, dose dependent, maximum. It is filed as cell-based, human. As for the experimental part: The 22Rvl cell line was purchased from ATCC. Reporter plasmid (p5.7 kb-PSA-Luc) was constructed by inserting the 5.7 kb PSA promoter into pGL3 plasmid (Promega).
(§1) For luciferase activity assays, 8×10^4 22Rvl-derived cells were grown in 48-well multi-well plates. The cell culture medium was RPMI containing 5% charcoal coated dextran stripped fetal bovine serum (Hyclone). After the cells were grown for one day in culture, their growth medium was exchanged to include experimental or control compositions, as described below, and cell growth was continued for a further 20 hours. Cells were lysed by the addition of passive lysis buffer (Promega), then luciferase assays were performed using a luciferase assay system (Promega) and VICTOR^2 multilabel counter (PerkinElmer), and normalized to lysate protein as measured by a Coomassie (Bradford) Protein Assay Kit (Pierce).
The AR signaling pathway promotes the development of prostate cancer. Thus, we established a cell-based model to observe androgen-responsive promoter activity in human prostate cancer cells. […] 22RvPSA36-103 cells were incubated for 20 hours in the presence of an androgen.

For test [2], the system named is AR in a complex with IKKα. To be noted: 10 nM, five minutes, 22Rv/PSA36-103 cells. The source says:
We investigated if IKKα or IKKβ could interact with activated AR in 22Rv/PSA36-103 cells after androgen stimulation.

Test [3] relates to androgen-responsive promoter activity in 22RvPSA36-103 cells. The test can be described thus: Luciferase assay, inhibition of androgen-induced androgen-responsive promoter activity. Format: cell-based, human. To be noted: 20 hours. The procedure: as §1
The ability of the IKK inhibitors 15-deoxy-Δ^12,14-prostaglandin J2, prostaglandin A1, and wedelolactone to inhibit androgen-responsive promoter activity was tested using the above-described luciferase assay.
A tet operon-regulated H1-small hairpin RNA expression cassette was constructed and inserted into the pcDNA6tTR™ plasmid from Invitrogen (Carlsbad, Calif.). Each knockdown plasmid was transfected into 22RvPSA36-103 cells to produce stably transfected cell lines. The knockdown of IKKα or IKKβ in daughter cell lines was determined by immunoblotting. […] To induce RNAi-mediated knockdown, cells were grown in medium containing 1 μg/ml doxycycline as compared to vehicle control for 3 days. Subsequent treatment and assays were performed according to the procedure of the aforementioned luciferase assays.

Another test deals with 22Rv1 cells. The test can be described thus: Colony forming efficiency, crystal violet OD595, 22Rv1 cells. To be noted: 6 days, plus androgen. Format: cell-based, human.
The subject of a further test is 22RvPSA36-103 cells. As to the kind of experiment: Colony forming efficiency, crystal violet OD595, 22RvPSA36-103 cells. It is filed as cell-based, human. To be noted: 6 days, plus androgen. As for the experimental part: Given that activation of the AR signaling pathway stimulates prostate cancer cell proliferation and our finding that IKKα is implicated in this pathway, we sought to determine if IKKα inhibition would reduce prostate cancer cell proliferation. To this end, the colony forming efficiency of 22Rv1 cells and 22RvPSA36-103 cells in the presence of an androgen plus or minus an IKK inhibitor was determined by growing 2×10^4 cells in 12-well multi-well plates for 6 days. The growth medium was replaced every three days. At the end of the growth period, cell colonies were stained with 0.1% crystal violet in phosphate buffer saline, dried, and photographed. Cellular retention of crystal violet was extracted with 20% acetic acid in water and measured at OD595 as a quantitative indicator of colony forming efficiency.

Structures are written as SMILES.

Regarding `C[C@]12CCC(=O)C[C@@H]1CC[C@@H]1[C@@H]2CC[C@]2(C)[C@@H](O)CC[C@@H]12` [5α-dihydrotestosterone], the PSA-luciferase activity stimulation result in test [1] is on record as “approximately 100 fold over baseline”. Also, the “Co-immunoprecipitation of the AR in a complex with IKKα” value in test [2] is “detected”.
With `CC(=O)[C@H]1CC[C@H]2[C@@H]3CCC4=CC(=O)CC[C@]4(C)[C@H]3CC[C@]12C` [progesterone], the “Induction of PSA-luciferase expression” value in test [1] is given as “failed to induce PSA-luciferase expression”.
Same read-out and setting: the value for `C[C@]12CC[C@@H]3c4ccc(O)cc4CC[C@H]3[C@@H]1CC[C@@H]2O` [17-β-estradiol] was “failed to induce PSA-luciferase expression”.
Regarding `C[C@]12CC[C@H]3[C@@H](CCC4=CC(=O)CC[C@@]43C)[C@@H]1CC[C@@H]2O` [testosterone], the PSA-luciferase activity stimulation result in test [1] is listed as “approximately 100 fold over baseline”.
Regarding `COc1cc(O)c2c(c1)oc(=O)c1c3cc(O)c(O)cc3oc21` [wedelolactone], in test [3], the “Inhibition of 5α-dihydrotestosterone-induced luciferase expression” value was “inhibited 5α-dihydrotestosterone-induced luciferase expression in a dose-dependent manner”. The “Inhibition of androgen-stimulated colony growth” value with 22Rv1 cells and in the test on 22RvPSA36-103 cells was “highly effective” in each case.
With `CCCCC/C=C/C=C1/C(=O)C=C[C@@H]1C/C=C\CCCC(=O)O` [15-deoxy-Δ^12,14-prostaglandin J2], in test [3], the “Inhibition of 5α-dihydrotestosterone-induced luciferase expression” value is “inhibited 5α-dihydrotestosterone-induced luciferase expression in a dose-dependent manner”.
Still for that read-out and setting: the value for `CCCCC[C@H](O)/C=C/[C@H]1C=CC(=O)[C@@H]1CCCCCCC(=O)O` [prostaglandin A1] was “inhibited 5α-dihydrotestosterone-induced luciferase expression in a dose-dependent manner”.

Values taken from patent publication US9144591B2, “Transcription modulator compositions” (Academia Sinica, priority 2006, dated 2015).
